Test results reported in PubChem BioAssay (NCI).
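Step 1: Grow cells in 96-well plates. Step 2: Expose to compound for 48 hours at 5 concentrations. Step 3: Interpolate endpoints linearly; if unreached, use highest concentration. GI50: concentration for 50% inhibition of growth. At the TGI there is no net growth.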

Columns and labels:
Assay in all cases: NCI anticancer screen, dose series, 48 h
PC-3 prostate = system: PC-3 prostate
SW-620 colon = system: SW-620 colon
MDA-MB-435 = system: MDA-MB-435
A498 renal = system: A498 renal
SF-295 CNS = system: SF-295 CNS
SF-539 CNS = system: SF-539 CNS
TK-10 renal = system: TK-10 renal
SK-OV-3 ovarian = system: SK-OV-3 ovarian
BT-549 breast = system: BT-549 breast
SNB-19 CNS = system: SNB-19 CNS

SMILES | TGI (PC-3 prostate) [µM] | TGI (SW-620 colon) [µM] | TGI (MDA-MB-435) [µM] | TGI (A498 renal) [µM] | TGI (SF-295 CNS) [µM] | TGI (SF-539 CNS) [µM] | TGI (TK-10 renal) [µM] | TGI (SK-OV-3 ovarian) [µM] | TGI (BT-549 breast) [µM] | TGI (SNB-19 CNS) [µM] | GI50 (PC-3 prostate) [µM] | GI50 (SW-620 colon) [µM] | GI50 (MDA-MB-435) [µM] | GI50 (A498 renal) [µM] | GI50 (SF-295 CNS) [µM] | GI50 (SF-539 CNS) [µM] | GI50 (TK-10 renal) [µM] | GI50 (SK-OV-3 ovarian) [µM] | GI50 (BT-549 breast) [µM] | GI50 (SNB-19 CNS) [µM]
NS(=O)(=O)c1ccc(NC(=O)c2ccc3nc4ccccc4c(Nc4ccc(S(N)(=O)=O)cc4)c3c2)cc1 | > 100 | > 100 | > 100 | > 100 | > 100 | > 100 | > 100 | > 100 | > 100 | > 100 | – | – | – | – | – | – | – | – | – | –
C#CCNC(=O)CC[C@@H](C)[C@H]1CC[C@H]2[C@@H]3CC[C@@H]4CC(=O)CC[C@]4(C)[C@H]3CC[C@]12C | 24.2 | 43.7 | 60.1 | > 100 | 49.4 | 30.4 | 44.5 | > 100 | 36.7 | 71 | 2.91 | 17.8 | 18.7 | 25 | 19.3 | 14.1 | 18 | 28.8 | 13.7 | 24.3
O=C(CC(C(=O)c1cccs1)c1ccc2c(c1)OCO2)c1ccccc1 (stereo not given) | > 100 | > 100 | > 100 | > 100 | > 100 | > 100 | > 100 | > 100 | > 100 | > 100 | – | – | – | – | – | – | – | – | – | –
O=C1c2ccccc2C(=O)N1NC1=NCCN1 | > 100 | > 100 | > 100 | > 100 | > 100 | > 100 | > 100 | > 100 | > 100 | > 100 | – | – | – | – | – | – | – | – | – | –
C[C@@H]1CC[C@@]2(C)[C@H](C)/C(=C\COC(=O)/C=C/c3ccc(O)c(O)c3)CC[C@@]12C | 17.4 | 23.6 | 11.6 | 25.8 | 23.2 | 16.2 | 11.5 | 26.4 | 29 | 27.8 | – | – | – | – | – | – | – | – | – | –
O=C(NC(OCc1ccccc1)(C(F)(F)F)C(F)(F)F)OCc1ccccc1 | 26.7 | 31.1 | 31 | 31.6 | 31.4 | 31.1 | 20.9 | 31.3 | 28.7 | 29.2 | – | – | – | – | – | – | – | – | – | –
CCCCCCCCCCCCCCCC(=O)OC1C(O)C(O)C(O)C(O)C12CO2 (stereo not given) | 89.7 | 40 | > 100 | > 100 | > 100 | 63.9 | > 100 | > 100 | > 100 | > 100 | – | – | – | – | – | – | – | – | – | –
CCOc1cc2c(cc1O)C(=O)C[C@@H]1[C@@H]2CC[C@]2(C)[C@@H](O)CC[C@@H]12 | > 82.5 | > 100 | 0.222 | > 29.1 | 9.52 | 0.487 | > 100 | > 73.6 | 28.9 | > 55.2 | – | – | – | – | – | – | – | – | – | –
CN1CCc2c(sc3ncn(Nc4ccc(F)cc4)c(=N)c23)C1 | > 100 | > 100 | > 100 | > 100 | > 100 | > 100 | > 100 | > 100 | > 100 | > 100 | – | – | – | – | – | – | – | – | – | –
CCN(CC)CCSc1c(C(C)=O)c(=O)n(-c2ccccc2)c(=S)n1-c1ccccc1 | 12 | 13.4 | 21.2 | 40.6 | > 100 | 6.01 | 17.2 | > 100 | 30.8 | 55.8 | – | – | – | – | – | – | – | – | – | –
CN(Cc1cnc2nc(N)nc(N)c2n1)c1ccc(C(=O)NCCCC(=O)O)cc1 | > 100 | > 100 | > 100 | > 100 | > 100 | > 100 | > 100 | > 100 | > 100 | > 100 | – | – | – | – | – | – | – | – | – | –
COc1ccc(/C=C/C(=O)CCN2CCN(CCC(=O)/C=C/c3ccc(OC)cc3)CC2)cc1 | 25.5 | 19.7 | 24.6 | 16.2 | 20.8 | 19.1 | 28 | 24.1 | 39.9 | > 100 | – | – | – | – | – | – | – | – | – | –
CCCCCCCCCCCCc1ccsc1-c1ccc(-c2ccc(-c3sccc3CCCCCCCCCCCC)s2)s1 | > 100 | > 100 | > 100 | > 100 | > 100 | > 100 | > 100 | > 100 | > 100 | > 100 | – | – | – | – | – | – | – | – | – | –
CC(C)=CCc1cc(/C=C/C(=O)O)cc(CC=C(C)C)c1O | > 100 | > 100 | > 100 | > 100 | > 100 | > 100 | > 100 | > 100 | > 100 | > 100 | – | – | – | – | – | – | – | – | – | –
COc1ccc2nc3cc(Cl)ccc3c(NCCCCCC(=O)NC(COc3ccc4ccc5cccnc5c4n3)COc3ccc4ccc5cccnc5c4n3)c2c1 | 28.4 | 33 | > 100 | 31 | > 100 | 30.6 | 32 | > 100 | 3.55 | > 100 | – | – | – | – | – | – | – | – | – | –
O=C1CN(c2ccccc2)C(=O)CN1NCNN1CC(=O)N(c2ccccc2)CC1=O | > 100 | > 100 | > 100 | > 100 | > 100 | > 100 | > 100 | > 100 | > 100 | > 100 | – | – | – | – | – | – | – | – | – | –
